Measurements reported in patent publication US11008317B2, “Triazolopyridine inhibitors of myeloperoxidase and/or EPX” (priority 2016, dated 2021).

How the values were obtained:
myeloperoxidase [1] = target: T1, myeloperoxidase (Homo sapiens, UniProt P05164); experiment: MPO Peroxidation Assay (Amplex Red Assay); assay type: biochemical; conditions: potency range class
T1 sequence (P05164 49-745): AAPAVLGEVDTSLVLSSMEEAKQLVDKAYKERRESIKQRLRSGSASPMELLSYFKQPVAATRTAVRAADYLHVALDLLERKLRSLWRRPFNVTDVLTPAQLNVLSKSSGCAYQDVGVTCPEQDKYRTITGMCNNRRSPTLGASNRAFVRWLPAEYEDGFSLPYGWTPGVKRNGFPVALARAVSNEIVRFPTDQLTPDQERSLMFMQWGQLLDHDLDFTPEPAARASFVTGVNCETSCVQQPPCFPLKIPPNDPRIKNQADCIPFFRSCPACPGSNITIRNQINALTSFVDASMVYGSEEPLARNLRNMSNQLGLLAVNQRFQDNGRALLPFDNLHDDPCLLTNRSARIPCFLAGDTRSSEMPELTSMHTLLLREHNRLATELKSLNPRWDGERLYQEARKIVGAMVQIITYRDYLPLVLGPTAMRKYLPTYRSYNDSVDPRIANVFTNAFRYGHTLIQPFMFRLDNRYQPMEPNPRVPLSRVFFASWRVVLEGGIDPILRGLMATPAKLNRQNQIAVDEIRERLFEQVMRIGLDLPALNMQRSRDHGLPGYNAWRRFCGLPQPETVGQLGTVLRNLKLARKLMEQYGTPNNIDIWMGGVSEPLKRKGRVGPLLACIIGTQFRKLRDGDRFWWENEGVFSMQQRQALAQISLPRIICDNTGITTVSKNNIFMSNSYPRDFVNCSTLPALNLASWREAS

myeloperoxidase [2] = target: T1, myeloperoxidase; experiment: MPO Chlorination Assay (APF Assay); assay type: biochemical; conditions: potency range class, read-out: APF Assay IC50 value
[3] = read-out: Amplex Red Assay IC50 value

Compound	IC50 (myeloperoxidase [1]; [3]) [µM]	IC50 (myeloperoxidase [2]) [nM]	IC50 (myeloperoxidase [1]; Amplex Red Assay IC50 value (μM)) [µM]
Nc1cc(C(CCN[C@H]2CC[C@H](c3ccc(=O)[nH]c3)CC2)c2ccccc2)c2nn[nH]c2n1 (stereo partly drawn) [Example 134, 5-[(trans)-4-[(3-{5-amino-3H-[1,2,3]triazolo[4,5-b]pyridin-7-yl}-3-phenylpropyl)amino]cyclohexyl]-1,2-dihydropyridin-2-one]	0.101 to 0.999	101 to 999	
Nc1cc(C(CCNC(c2ccccc2)C(F)(F)F)c2ccccc2)c2nn[nH]c2n1 (stereo not drawn) [Example 24, 7-{1-phenyl-3-[(2,2,2-trifluoro-1-phenylethyl)amino]propyl}-3H-[1,2,3]triazolo[4,5-b]pyridin-5-amine]	0.101 to 0.999	1000 to 10000	
Nc1cc(C(CCNCC2CC2c2ccc(F)cc2)c2ccccc2)c2nn[nH]c2n1 (stereo not drawn) [Example 176, 7-[3-({[2-(4-fluorophenyl)cyclopropyl]methyl}amino)-1-phenylpropyl]-3H-[1,2,3]triazolo[4,5-b]pyridin-5-amine]	0.101 to 0.999	1 to 100	
Nc1cc(C(CCN[C@H]2CC[C@H](c3ccccc3)CC2)c2cccc(S(N)(=O)=O)c2)c2nn[nH]c2n1 (stereo partly drawn) [Example 165, 3-(1-{5-amino-3H-[1,2,3]triazolo [4,5-b]pyridin-7-yl}-3-{[(trans)-4-phenylcyclohexyl]amino}propyl) benzene-1-sulfonamide]	0.101 to 0.999	101 to 999	
Nc1cc(C(CCNCc2ccccc2Oc2ccccc2)c2ccccc2)c2nn[nH]c2n1 (stereo not drawn) [Example 74, 7-(3-{[(2-phenoxyphenyl)methyl]amino}-1-phenylpropyl)-3H-[1,2,3]triazolo[4,5-b]pyridin-5-amine]	0.101 to 0.999	1 to 100	
Nc1cc(C(CCN[C@H]2CC[C@H](n3cncn3)CC2)c2ccccc2)c2nn[nH]c2n1 (stereo partly drawn) [Example 146, 7-(1-phenyl-3-{[(trans)-4-(1H-1,2,4-triazol-1-yl)cyclohexyl]amino}propyl)-3H-[1,2,3] triazolo[4,5-b] pyridin-5-amine]	1 to 10	101 to 999	
Nc1cc(C(CCN[C@H]2C[C@H](c3ccccc3)Cc3ccccc32)c2ccccc2)c2nn[nH]c2n1 (stereo partly drawn) [Example 82, 7-(1-phenyl-3-{[(1S,3R)-3-phenyl-1,2,3,4-tetrahydronaphthalen-1-yl]amino}propyl)-3H-[1,2,3]triazolo [4,5-b]pyridin-5-amine]	1 to 10	1 to 100	
Nc1cc(C(Cc2cccc(O)c2)c2ccccc2)c2nn[nH]c2n1 (stereo not drawn) [Example 230, 3-(2-(5-amino-3H-[1,2,3]triazolo[4,5-b]pyridin-7-yl)-2-phenylethyl)phenol]	0.001 to 0.1	1000 to 10000	
CC1C[C@H](NCCC(c2ccccc2)c2cc(N)nc3[nH]nnc23)c2ccccc21 (stereo partly drawn) [Example 95, 7-(3-{[(1S)-3-methyl-2,3-dihydro-1H-inden-1-yl]amino}-1-phenylpropyl)-3H-[1,2,3]triazolo[4,5-b]pyridin-5-amine]	0.101 to 0.999	1 to 100	
Nc1cc(C(CCN[C@@H]2C[C@@H](c3ccccc3)Cc3ccccc32)c2ccccc2)c2nn[nH]c2n1 (stereo partly drawn) [Example 84, 7-(1-phenyl-3-{[(1R,3S)-3-phenyl-1,2,3,4-tetrahydronaphthalen-1-yl]amino}propyl)-3H-[1,2,3]triazolo [4,5-b]pyridin-5-amine]	1 to 10	101 to 999	
Nc1cc(C(CCNCC(c2ccccc2)c2ccccc2)c2ccccc2)c2nn[nH]c2n1 (stereo not drawn) [Example 120, 7-{3-[(2,2-diphenylethyl)amino]-1-phenylpropyl}-3H-[1,2,3]triazolo[4,5-b]pyridin-5-amine]	1 to 10	1 to 100	
CCCCC12CCC(NCCC(c3ccccc3)c3cc(N)nc4[nH]nnc34)(CC1)CC2 (stereo not drawn) [Example 130, 7-[3-({4-butylbicyclo [2.2.2]octan-1-yl}amino)-1-phenylpropyl]-3H-[1,2,3]triazolo[4,5-b]pyridin-5-amine]	0.101 to 0.999	1 to 100	
CC1CC(NCCC(c2ccccc2)c2cc(N)nc3[nH]nnc23)CCN1c1ccccc1 (stereo not drawn) [Example 131, N-(3-{5-amino-3H-[1,2,3]triazolo[4,5-b]pyridin-7-yl}-3-phenylpropyl)-2-methyl-1-phenylpiperidin-4-amine]		1 to 100	
Nc1cc(C(CCOC2CCc3ccccc32)c2ccccc2)c2nn[nH]c2n1 (single isomer, unassigned) [Example 232, 7-(3-((2,3-dihydro-1H-inden-1-yl)oxy)-1-phenylpropyl)-3H-[1,2,3]triazolo[4,5-b]pyridin-5-amine]	0.101 to 0.999		
Cc1cccc(C(Cc2ccccc2)c2cc(N)nc3[nH]nnc23)c1 (stereo not drawn) [Example 36, 7-[1-(3-methylphenyl)-2-phenylethyl]-3H-[1,2,3]triazolo [4,5-b]pyridin-5-amine]	0.101 to 0.999		
COC(=O)c1cccc(C(CCN[C@H]2CC[C@H](c3ccccc3)CC2)c2cc(N)nc3[nH]nnc23)c1 (stereo partly drawn) [Example 163, methyl 3-(1-{5-amino-3H-[1,2,3]triazolo [4,5-b]pyridin-7-yl}-3-{[(trans)-4-phenylcyclohexyl]amino}propyl) benzoate]		1 to 100	
NC(=O)CN(CC[C@H](c1ccccc1)c1cc(N)nc2[nH]nnc12)[C@H]1CC[C@H](c2ccccc2)CC1 [Example 189, 2-{[(3R)-3-{5-amino-3H-[1,2,3]triazolo [4,5-b]pyridin-7-yl}-3-phenylpropyl] [(trans)-4-phenylcyclohexyl]amino}acetamide]		1 to 100	

Compound	IC50 (myeloperoxidase [1]; [3]) [µM]	IC50 (myeloperoxidase [2]) [nM]	IC50 (myeloperoxidase [1]; Amplex Red Assay IC50 value (μM)) [µM]
Nc1cc([C@H](CCNC23CCC(c4ccccc4)(CC2)C(O)C3)c2ccccc2)c2nn[nH]c2n1 (stereo partly drawn) [Example 181, 4-{[(3R)-3-{5-amino-3H-[1,2,3]triazolo [4,5-b]pyridin-7-yl}-3-phenylpropyl]amino}-1-phenylbicyclo[2.2.2] octan-2-ol]	0.001 to 0.1		
CC(NCCC(c1ccccc1)c1cc(N)nc2[nH]nnc12)c1ccccc1 (single isomer, unassigned) [Example 13, 7-(1-phenyl-3-((1-phenylethyl)amino)propyl)-3H-[1,2,3]triazolo[4,5-b]pyridin-5-amine]	0.101 to 0.999		
Nc1cc(C(CCNC2CCC(c3ccc(Cl)c(Cl)c3)c3ccccc32)c2ccccc2)c2nn[nH]c2n1 (stereo not drawn) [Example 122, 7-(3-{[4-(3,4-dichlorophenyl)-1,2,3,4-tetrahydronaphthalen-1-yl]amino}-1-phenylpropyl)-3H-[1,2,3]triazolo[4,5-b]pyridin-5-amine]	0.001 to 0.1		
Nc1cc(C(Cc2cccc(Cl)c2)c2ccccc2)c2nn[nH]c2n1 (stereo not drawn) [Example 32, 7-[2-(3-chlorophenyl)-1-phenylethyl]-3H-[1,2,3]triazolo [4,5-b]pyridin-5-amine]	0.101 to 0.999		
Nc1cc(C(Cc2ccccc2Cl)c2ccccc2)c2nn[nH]c2n1 (stereo not drawn) [Example 31, 7-[2-(2-chlorophenyl)-1-phenylethyl]-3H-[1,2,3]triazolo [4,5-b]pyridin-5-amine]	0.101 to 0.999		
Nc1cc(C(Cc2ccccc2)c2cccc(Cl)c2)c2nn[nH]c2n1 (stereo not drawn) [Example 35, 7-[1-(3-chlorophenyl)-2-phenylethyl]-3H-[1,2,3]triazolo [4,5-b]pyridin-5-amine]	0.101 to 0.999		
Nc1cc(C(Cc2ccc(CO)cc2)c2ccccc2)c2nn[nH]c2n1 (stereo not drawn) [Example 224, (4-(2-(5-amino-3H-[1,2,3]triazolo[4,5-b]pyridin-7-yl)-2-phenylethyl)phenyl)methanol]	0.001 to 0.1		
CC(C)CC(c1ccccc1)c1cc(N)nc2[nH]nnc12 (stereo not drawn) [Example 4, 7-(3-methyl-1-phenylbutyl)-3H-[1,2,3]triazolo[4,5-b]pyridin-5-amine]	0.101 to 0.999		
Nc1cc(C(CCC2CCCCC2)c2ccccc2)c2nn[nH]c2n1 (stereo not drawn) [Example 6, 7-(3-cyclohexyl-1-phenylpropyl)-3H-[1,2,3]triazolo[4,5-b]pyridin-5-amine]	0.101 to 0.999		
COc1cccc(C(Cc2ccccc2)c2cc(N)nc3[nH]nnc23)c1 (stereo not drawn) [Example 34, 7-(1-(3-methoxyphenyl)-2-phenylethyl)-3H-[1,2,3]triazolo[4,5-b]pyridin-5-amine]			0.101 to 0.999
Nc1cc(C(CCNC2CCCCC2)c2ccccc2)c2nn[nH]c2n1 (stereo not drawn) [Example 19, 7-[3-(cyclohexylamino)-1-phenylpropyl]-3H-[1,2,3]triazolo[4,5-b] pyridin-5-amine]	0.101 to 0.999		
CC(c1ccccc1)c1cc(N)nc2[nH]nnc12 (racemic) [Example 1, 7-(1-phenylethyl)-3H-[1,2,3]triazolo[4,5-b]pyridin-5-amine]	0.001 to 0.1		
CCC(c1ccccc1)c1cc(N)nc2[nH]nnc12 (stereo not drawn) [Example 5, 7-(1-phenylpropyl)-3H-[1,2,3]triazolo [4,5-b]pyridin-5-amine]	0.101 to 0.999		
CCCC(c1ccccc1)c1cc(N)nc2[nH]nnc12 (stereo not drawn) [Example 3, 7-(1-phenylbutyl)-3H-[1,2,3]triazolo [4,5-b]pyridin-5-amine]	0.001 to 0.1		
Nc1cc(C(Cc2ccc(Cl)cc2)c2ccccc2)c2nn[nH]c2n1 (stereo not drawn) [Example 33, 7-[2-(4-chlorophenyl)-1-phenylethyl]-3H-[1,2,3]triazolo [4,5-b]pyridin-5-amine]	0.101 to 0.999		
Nc1cc(C(CCO)c2ccccc2)c2nn[nH]c2n1 (stereo not drawn) [Example 174, 3-{5-amino-3H-[1,2,3]triazolo [4,5-b]pyridin-7-yl}-3-phenylpropan-1-ol]	0.101 to 0.999		
